Assay results as given in paper doi:10.1101/2020.06.23.167346v1 (biorxiv, 2020).

Target: T1, TcAK (T. cruzi arginine kinase) (Trypanosoma cruzi, UniProt O96507)
T1 sequence (O96507 1-357): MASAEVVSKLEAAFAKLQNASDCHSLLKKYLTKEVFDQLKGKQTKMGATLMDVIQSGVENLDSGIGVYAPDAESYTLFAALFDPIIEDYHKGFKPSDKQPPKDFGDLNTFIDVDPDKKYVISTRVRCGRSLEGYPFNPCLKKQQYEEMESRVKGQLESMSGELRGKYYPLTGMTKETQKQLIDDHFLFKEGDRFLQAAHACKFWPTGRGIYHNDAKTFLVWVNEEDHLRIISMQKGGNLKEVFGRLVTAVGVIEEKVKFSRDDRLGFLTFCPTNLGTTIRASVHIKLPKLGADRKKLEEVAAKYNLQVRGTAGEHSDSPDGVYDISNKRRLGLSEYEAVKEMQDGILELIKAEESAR
Test: coupled pyruvate kinase / lactate dehydrogenase assay, NADH absorbance at […] nm
Type: biochemical

## COc1cc(CNC(=O)CCCC/C=C/C(C)C)ccc1O [capsaicin, (E)-N-(4-hydroxy-3-methoxybenzyl)-8-methyl-6-nonenamide]
  IC50: ~800 µM
